Columns and labels:
[1] = tested on: HIV-1 (H9IIIB strain); assay: Antiviral acute infection assay in cell culture (Spread); assay type: cell-based; conditions: Human immunodeficiency virus 1, T-lymphoid, HIV-1 H9IIIB infection of MT-4 human T-lymphoid cells in 10% FBS; mean of at least two independent experiments
Description: Antiviral Assays in Cell Culture (“Spread”)
Acute Infection Assay (“Spread”) data were generated using HIV-1 (H9IIIB strain) infection of MT-4 human T-lymphoid cells in 10% FBS, and according to the methods disclosed by J. P. Vacca et al, “L-735,524: An orally bioavailable human immunodeficiency virus type 1 protease inhibitor,” Proc. Natl. Acad. Sci. USA, Vol. 91, pp. 4096-4100 (April 1994).

[2] = molecular target: T1, wildtype HIV-1 protease (Human immunodeficiency virus type 1 group M subtype B, UniProt P04585); assay: Assay for inhibition of microbial expressed HIV protease (Pepcleav); assay type: biochemical; conditions: wild type HIV-1 protease expressed in E. coli, peptide substrate, pH 5.5; mean of at least two independent experiments; read-out: Pepcleav
T1 construct: the wildtype HIV-1 protease (which was expressed in Escherichia coli); made in house; host or cells: Escherichia coli
Outline: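 Cleavage of 400 μM peptide substrate Val-Ser-Gln-Asn-(βnaphthyl)Ala-Pro-Ile-Val by 20 pM wild-type enzyme (E. coli-expressed) ran 1 h at 30 °C after 30 min inhibitor preincubation, pH 5.5 acetate buffer. Inhibition derived from product peak area by C18 LC with multiple-reaction-monitoring MS after formic acid quench.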

SMILES | EC50 [1] [nM] | IC50 [2] [nM]
N[C@H](C(=O)Nc1cccc(F)c1CC[C@@H]1CN[C@H](COC(=O)NCC(F)(F)F)CO1)[C@@H](c1ccc(F)cc1)c1cccc(OC(F)(F)F)c1 [Example 263, (βS)-4-fluoro-N-(3-fluoro-2-{2-[(2R,5S)-5-({[(2,2,2-trifluoroethyl)carbamoyl]oxy}methyl)morpholin-2-yl]ethyl}phenyl)-β-[3-(trifluoromethoxy)phenyl]-L-phenylalaninamide] | 48 | 3.7
COC(=O)N[C@H](C(=O)Nc1cncc(F)c1CC[C@@H]1CN[C@H](COC(=O)NCC(F)(F)F)CO1)C(c1cccc(F)c1)c1cccc(F)c1 [Example 280, 3-fluoro-β-(3-fluorophenyl)-N-(5-fluoro-4-{2-[(2R,5S)-5-({[(2,2,2-trifluoroethyl)carbamoyl]oxy}methyl)morpholin-2-yl]ethyl}pyridin-3-yl)-Nα-(methoxycarbonyl)-L-phenylalaninamide] | 15 | 1
CCC(CO)NC(=O)OC[C@@H]1CO[C@H](CCc2c(F)cncc2NC(=O)CC(c2ccc(F)cc2)c2ccc(F)cc2)CN1 (stereo partly drawn) [Example 165, {(3S,6R)-6-[2-(3-{[3,3-bis(4-fluorophenyl)propanoyl]amino}-5-fluoropyridin-4-yl)ethyl]morpholin-3-yl}methyl [1-(hydroxy-methyl)propyl]carbamate] | 40 | 4.5
COc1ccc([C@@H](c2ccccc2)[C@H](N)C(=O)Nc2cncc(F)c2CC[C@@H]2CN[C@H](COC(=O)NCC(F)(F)F)CO2)cc1 [Example 256, (βR)-N-(5-fluoro-4-{2-[(2R,5S)-5-({[(2,2,2-trifluoroethyl)carbamoyl]oxy}methyl)morpholin-2-yl]ethyl}pyridin-3-yl)-O-methyl-β-phenyl-L-tyrosinamide] | 100 | 5.7
O=C(C[C@H](c1ccccc1)c1ccc(Cl)cc1)Nc1cccc(F)c1CC[C@@H]1CN[C@H](COC(=O)NCC(F)(F)F)CO1 [Example 150, {(3S,6R)-6-[2-(2-{[(3R)-3-(4-chlorophenyl)-3-phenylpropanoyl]amino}-6-fluorophenyl)ethyl]morpholin-3-yl}methyl (2,2,2-trifluoroethyl) carbamate] | 130 | 11
O=C(C[C@@H](c1ccc(F)cc1)c1cc(F)cc(F)c1)Nc1cncc(F)c1CC[C@@H]1CNC(COC(=O)NCC(F)(F)F)CO1 (stereo in doubt) [Example 89, (3S)-3-(4-Fluorophenyl)-3-(3,5-difluorophenyl)-N-(5-fluoro-4-(2-((2R,5R)-5-(2,2,2-trifluoroethylaminocarbonyloxymethyl)morpholine-2-yl)ethyl)pyridin-3-yl)propanamide] | 13 | 1.4
N[C@H](C(=O)Nc1cncc(F)c1CC[C@@H]1CN[C@H](COC(=O)NCc2ccno2)CO1)C(c1ccc(F)cc1)c1ccc(F)cc1 [Example 255, 4-fluoro-N-(5-fluoro-4-{2-[(2R,5S)-5-({[(isoxazol-5-ylmethyl)carbamoyl]oxy}methyl)morpholin-2-yl]ethyl}pyridin-3-yl)-β-(4-fluorophenyI)-L-phenylalaninamide] | 210 | 6.4
N[C@H](C(=O)Nc1cncc(F)c1CC[C@@H]1CN[C@H](COC(=O)NCc2ccc3ccccc3n2)CO1)C(c1ccc(F)cc1)c1ccc(F)cc1 [Example 243, {(3S,6R)-6-[2-(3-fluoro-5-{[4-fluoro-β-(4-fluorophenyl)-L-phenylalanyl]amino}pyridin-4-yl)ethyl]morpholin-3-yl}methyl (quinolin-2-ylmethyl)carbamate] | 240 | 24
N[C@H](C(=O)Nc1cncc(F)c1CC[C@@H]1CN[C@H](COC(=O)NCC2CCCCO2)CO1)C(c1ccc(F)cc1)c1ccc(F)cc1 (stereo partly drawn) [Example 213, 4-fluoro-β-(4-fluorophenyl)-N-(5-fluoro-4-{2-[(2R,5S)-5-({[(tetrahydro-2H-pyran-2-ylmethyl)carbamoyl]oxy}methyl)morpholin-2-yl]ethyl}pyridin-3-yl)-L-phenylalaninamide] | 61 | 6.1
N[C@H](C(=O)Nc1cccc(F)c1CC[C@@H]1CN[C@H](COC(=O)NCC(F)(F)F)CO1)[C@@H](c1ccc(Cl)cc1)c1cccc(F)c1 [Example 274, (βS)-β-(4-chlorophenyl)-3-fluoro-N-(3-fluoro-2-{2-[(2R,5S)-5-({[(2,2,2-trifluoroethyl)carbamoyl]oxy}methyl)morpholin-2-yl]ethyl}phenyl)-L-phenylalaninamide] | 11 | 1.3
COc1ccc([C@H](CC(=O)Nc2cccc(F)c2CC[C@@H]2CN[C@H](COC(=O)NCC(F)(F)F)CO2)c2ccc(F)cc2)cc1 [Example 151, {(3S,6R)-6-[2-(2-fluoro-6-{[(3S)-3-(4-fluorophenyl)-3-(4-methoxy-phenyl)propanoyl]amino}phenyl)ethyl]morpholin-3-yl}methyl (2,2,2-trifluoroethyl)carbamate] | 290 | 100
N[C@H](C(=O)Nc1cncc(F)c1CC[C@@H]1CN[C@H](COC(=O)NCC(F)(F)F)CO1)[C@@H](c1ccc(Cl)cc1)c1cc(F)cc(F)c1 [Example 97, (βS)-β-(4-Chlorophenyl)-3,5-difluoro-N-(5-fluoro-4-{2-[(2R,5S)-5-({[(2,2,2-trifluoroethyl)carbamoyl]oxy}methyl)morpholin-2-yl]ethyl}pyridin-3-yl)-L-phenylalaninamide] | 17 | 0.8
N[C@H](C(=O)Nc1cncc(F)c1CC[C@@H]1CN[C@H](COC(=O)NCC(F)(F)F)CO1)[C@H](c1ccccc1)c1ccc(F)c(F)c1 [Example 259, (βR)-β-(3,4-difluorophenyl)-N-(5-fluoro-4-{2-[(2R,5S)-5-({[(2,2,2-trifluoroethyl)carbamoyl]oxy}methyl)morpholin-2-yl]ethyl}pyridin-3-yl)-L-phenylalaninamide] | 66 | 5
COc1ccc([C@H](c2ccc(F)cc2)[C@H](N)C(=O)Nc2cncc(F)c2CC[C@@H]2CN[C@H](COC(=O)NCC(F)(F)F)CO2)cc1 [Example 250, (βR)-β-(4-fluorophenyl)-N-(5-fluoro-4-{2-[(2R,5S)-5-({[(2,2,2-trifluoroethyl)carbamoyl]oxy}methyl)morpholin-2-yl]ethyl}pyridin-3-yl)-O-methyl-L-tyrosinamide] | 63 | 8.3
C[C@H](NC(=O)OC[C@@H]1CO[C@H](CCc2c(F)cccc2NC(=O)[C@@H](N)C(c2ccc(F)cc2)c2ccc(F)cc2)CN1)c1ccc(F)cc1 [Example 212, 4-fluoro-N-[3-fluoro-2-(2-{(2R,5S)-5-[({[(1S)-1-(4-fluorophenyl)ethyl]carbamoyl}oxy)methyl]morpholin-2-yl}ethyl)phenyl]-β-(4-fluorophenyl)-L-phenylalaninamide] | 810 | 11
N[C@H](C(=O)Nc1cncc(F)c1CC[C@@H]1CN[C@H](COC(=O)NCC(F)(F)F)CO1)[C@H](c1ccc(F)cc1)c1ccc2ccccc2c1 [Example 96, (βR)-4-Fluoro-N-(5-fluoro-4-{2-[(2R,5S)-5-({[(2,2,2-trifluoroethyl)carbamoyl]oxy}methyl)morpholin-2-yl]ethyl}pyridin-3-yl)-β-naphthalen-2-yl-L-phenylalaninamide] | 73 | 9.9
COC(=O)N[C@H](C(=O)Nc1cncc(F)c1CC[C@@H]1CN[C@H](COC(=O)NCC(F)(F)F)CO1)[C@H](c1ccccc1)c1ccc(OC(F)(F)F)cc1 [Example 291, (βR)-N-(5-fluoro-4-{2-[(2R,5S)-5-({[(2,2,2-trifluoroethyl)carbamoyl]oxy}methyl)morpholin-2-yl]ethyl}pyridin-3-yl)-Nα-(methoxycarbonyl)-β-phenyl-O-(trifluoromethyl)-L-tyrosinamide] | 110 | 28
N[C@H](C(=O)Nc1cc(F)ccc1CC[C@@H]1CN[C@H](COC(=O)NCC(F)F)CO1)C(c1ccccc1)c1ccccc1 [Example 237, N-(2-{2-[(2R,5S)-5-({[(2,2-difluoroethyl)carbamoyl]oxy}methyl)morpholin-2-yl]ethyl}-5-fluorophenyl)-β-phenyl-L-phenylalaninamide] | 190 | 69
O=C(NCC(F)(F)F)OC[C@@H]1CO[C@H](CCc2c(F)cncc2NC(=O)[C@@H](NC(=O)OCCF)C(c2ccc(F)cc2)c2ccc(F)cc2)CN1 [Example 279, 4-fluoro-Nα-[(2-fluoroethoxy)carbonyl]-β-(4-fluorophenyl)-N-(5-fluoro-4-{2-[(2R,5S)-5-({[(2,2,2-trifluoroethyl)carbamoyl]oxy}methyl)morpholin-2-yl]ethyl}pyridin-3-yl)-L-phenylalaninamide] | 57 | 1.9
CC(C)OC(=O)N[C@H](C(=O)Nc1cncc(F)c1CC[C@@H]1CN[C@H](COC(=O)NCC(F)(F)F)CO1)C(c1ccc(F)cc1)c1ccc(F)cc1 [Example 277, 4-fluoro-β-(4-fluorophenyl)-N-(5-fluoro-4-{2-[(2R,5S)-5-({[(2,2,2-trifluoroethyl)carbamoyl]oxy}methyl)morpholin-2-yl]ethyl}pyridin-3-yl)-Nα-[(1-methylethoxy)carbonyl]-L-phenylalaninamide] | 23 | 3.2

From US9315475B2 (MERCK SHARP & DOHME CORP., priority 2011, dated 2016)
